# “Also recorded” adds a separate entry of the source. The source made the active and inactive calls. How the calls were made is not given here.
# Test system: CCRIS mutagenicity, Ames/micronucleus/aberration tests
# Experiment: CCRIS mutagenicity studies
compound,measurement,setting,value
OO,mutagenic call,"End Point: IN VITRO CHROMOSOMAL ABERRATIONS, Test System: CHO CELLS, Metabolic Activation: NONE",active; positive (structural changes)
same,mutagenic call,"End Point: IN VITRO CHROMOSOMAL ABERRATIONS, Test System: CHO-K1, Metabolic Activation: NONE",active; positive
same,mutagenic call,"End Point: IN VITRO CHROMOSOMAL ABERRATIONS, Test System: SYRIAN HAMSTER EMBRYO (SHE) CELLS, Metabolic Activation: NONE",active; positive (structural changes)
same,mutagenic call,"End Point: IN VITRO MICRONUCLEUS, Test System: CHL/IU CELLS, Metabolic Activation: NONE",active; positive
same,mutagenic call,"End Point: IN VITRO MICRONUCLEUS, Test System: CHO CELLS, Metabolic Activation: RAT, LIVER, S-9, AROCLOR 1254",inactive; negative
same,mutagenic call,"End Point: IN VITRO MICRONUCLEUS, Test System: HUMAN LYMPHOCYTES, Metabolic Activation: NONE",inactive; negative; main effect of h2o2 was necrosis
same,mutagenic call,"End Point: In vitro micronucleus, Test System: Chinese hamster V79 cells, Metabolic Activation: None",active; positive (hibiscus tiliaceus l methanolic extract at doses above 0.010 mg/ml had
same,mutagenic call,"End Point: In vitro micronucleus, Test System: Chinese hamster ovary (CHO) cells, Metabolic Activation: None","active; positive (lycopene (10, 25 and 50 um) significantly reduced the number of micron"
same,mutagenic call,"Test System: AMES SALMONELLA TYPHIMURIUM, Strain/Indicator: SB1106, Metabolic Activation: NONE, Method: PREINCUBATION",active; positive
same,mutagenic call,"Test System: AMES SALMONELLA TYPHIMURIUM, Strain/Indicator: SB1106, Metabolic Activation: NONE, Method: STANDARD PLATE",active; positive
same,mutagenic call,"Test System: AMES SALMONELLA TYPHIMURIUM, Strain/Indicator: SB1106P, Metabolic Activation: NONE, Method: PREINCUBATION",active; positive
same,mutagenic call,"Test System: AMES SALMONELLA TYPHIMURIUM, Strain/Indicator: SB1106P, Metabolic Activation: NONE, Method: STANDARD PLATE",active; positive
same,mutagenic call,"Test System: AMES SALMONELLA TYPHIMURIUM, Strain/Indicator: SB1111, Metabolic Activation: NONE, Method: PREINCUBATION",inactive; negative
same,mutagenic call,"Test System: AMES SALMONELLA TYPHIMURIUM, Strain/Indicator: SB1111, Metabolic Activation: NONE, Method: STANDARD PLATE",active; positive
same,mutagenic call,"Test System: AMES SALMONELLA TYPHIMURIUM, Strain/Indicator: TA92, Metabolic Activation: NONE, Method: PREINCUBATION",inactive; negative
same,mutagenic call,"Test System: AMES SALMONELLA TYPHIMURIUM, Strain/Indicator: TA97, Metabolic Activation: NONE, Method: STANDARD PLATE",active; positive
same,mutagenic call,"Test System: AMES SALMONELLA TYPHIMURIUM, Strain/Indicator: TA97, Metabolic Activation: RAT, LIVER, S-9, PHENOBARBITAL, Method: LIQUID INCUBATION",active; positive
same,mutagenic call,"Test System: AMES SALMONELLA TYPHIMURIUM, Strain/Indicator: TA97, Metabolic Activation: RAT, LIVER, S-9, PHENOBARBITAL, Method: STANDARD PLATE",active; positive
same,mutagenic call,"Test System: AMES SALMONELLA TYPHIMURIUM, Strain/Indicator: TA98, Metabolic Activation: NONE, Method: PREINCUBATION",inactive; negative
same,mutagenic call,"Test System: AMES SALMONELLA TYPHIMURIUM, Strain/Indicator: TA98, Metabolic Activation: NONE, Method: STANDARD PLATE",inactive; negative
same,mutagenic call,"Test System: AMES SALMONELLA TYPHIMURIUM, Strain/Indicator: TA98, Metabolic Activation: RAT, LIVER, S-9, AROCLOR 1254, Method: PREINCUBATION",inactive; negative
same,mutagenic call,"Test System: AMES SALMONELLA TYPHIMURIUM, Strain/Indicator: TA98, Metabolic Activation: RAT, LIVER, S-9, AROCLOR 1254, Method: STANDARD PLATE",inactive; negative
same,mutagenic call,"Test System: AMES SALMONELLA TYPHIMURIUM, Strain/Indicator: TA100, Metabolic Activation: NONE, Method: PREINCUBATION",inactive; negative
same,mutagenic call,"Test System: AMES SALMONELLA TYPHIMURIUM, Strain/Indicator: TA100, Metabolic Activation: NONE, Method: STANDARD PLATE",active; positive
same,mutagenic call,"Test System: AMES SALMONELLA TYPHIMURIUM, Strain/Indicator: TA100, Metabolic Activation: RAT, LIVER, S-9, AROCLOR 1254, Method: PREINCUBATION",inactive; negative
same,mutagenic call,"Test System: AMES SALMONELLA TYPHIMURIUM, Strain/Indicator: TA100, Metabolic Activation: RAT, LIVER, S-9, AROCLOR 1254, Method: STANDARD PLATE",active; positive
same,mutagenic call,"Test System: AMES SALMONELLA TYPHIMURIUM, Strain/Indicator: TA102, Metabolic Activation: RAT, LIVER, S-9, AROCLOR 1254, Method: PREINCUBATION",inactive; negative
same,mutagenic call,"Test System: AMES SALMONELLA TYPHIMURIUM, Strain/Indicator: TA104, Metabolic Activation: NONE, Method: PREINCUBATION",active; positive
same,mutagenic call,"Test System: AMES SALMONELLA TYPHIMURIUM, Strain/Indicator: TA104, Metabolic Activation: NONE, Method: STANDARD PLATE",active; positive
same,mutagenic call,"Test System: AMES SALMONELLA TYPHIMURIUM, Strain/Indicator: TA1535, Metabolic Activation: NONE, Method: PREINCUBATION",inactive; negative
same,mutagenic call,"Test System: AMES SALMONELLA TYPHIMURIUM, Strain/Indicator: TA1535, Metabolic Activation: NONE, Method: STANDARD PLATE",inactive; negative
same,mutagenic call,"Test System: AMES SALMONELLA TYPHIMURIUM, Strain/Indicator: TA1535, Metabolic Activation: RAT, LIVER, S-9, AROCLOR 1254, Method: STANDARD PLATE",inactive; negative
same,mutagenic call,"Test System: AMES SALMONELLA TYPHIMURIUM, Strain/Indicator: TA1537, Metabolic Activation: NONE, Method: STANDARD PLATE",inactive; negative
same,mutagenic call,"Test System: AMES SALMONELLA TYPHIMURIUM, Strain/Indicator: TA1537, Metabolic Activation: RAT, LIVER, S-9, AROCLOR 1254, Method: STANDARD PLATE",inactive; negative
same,mutagenic call,"Test System: AMES SALMONELLA TYPHIMURIUM, Strain/Indicator: TA1537, Metabolic Activation: RAT, LIVER, S-9, PHENOBARBITAL, Method: LIQUID INCUBATION",active; positive
same,mutagenic call,"Test System: AMES SALMONELLA TYPHIMURIUM, Strain/Indicator: TA1537, Metabolic Activation: RAT, LIVER, S-9, PHENOBARBITAL, Method: STANDARD PLATE",active; positive
same,mutagenic call,"Test System: AMES SALMONELLA TYPHIMURIUM, Strain/Indicator: TA1538, Metabolic Activation: NONE, Method: STANDARD PLATE",inactive; negative
same,mutagenic call,"Test System: AMES SALMONELLA TYPHIMURIUM, Strain/Indicator: TA1538, Metabolic Activation: RAT, LIVER, S-9, AROCLOR 1254, Method: STANDARD PLATE",inactive; negative
same,mutagenic call,"Test System: AMES SALMONELLA TYPHIMURIUM, Strain/Indicator: TA1975, Metabolic Activation: NONE, Method: PREINCUBATION",inactive; negative
same,mutagenic call,"Test System: AMES SALMONELLA TYPHIMURIUM, Strain/Indicator: TA2638, Metabolic Activation: NONE, Method: STANDARD PLATE",active; positive
same,mutagenic call,"Test System: AMES SALMONELLA TYPHIMURIUM, Strain/Indicator: TA2638A, Metabolic Activation: NONE, Method: STANDARD PLATE",active; positive
same,mutagenic call,"Test System: AMES SALMONELLA TYPHIMURIUM, Strain/Indicator: YG3001, Metabolic Activation: NONE, Method: PREINCUBATION",inactive; negative
same,mutagenic call,"Test System: AMES SALMONELLA TYPHIMURIUM, Strain/Indicator: YG3002, Metabolic Activation: NONE, Method: PREINCUBATION",inactive; negative
same,mutagenic call,"Test System: AMES SALMONELLA TYPHIMURIUM, Strain/Indicator: YG3003, Metabolic Activation: NONE, Method: PREINCUBATION",active; positive
same,mutagenic call,"Test System: Ames Salmonella typhimurium, Strain/Indicator: TA102, Metabolic Activation: None, Method: Preincubation",active; positive (decrease in mutagenicity when 0.99-15.90 mg/plate of chloroform extrac; also recorded: active; positive (dose related decrease in mutagenicity when 1.82-7.30 mg/plate of metha
same,mutagenic call,"Test System: Ames Salmonella typhimurium, Strain/Indicator: TA102, Metabolic Activation: Rat, Liver, S-9, Aroclor 1254, Method: Preincubation",active; positive (decrease in mutagenicity when 0.99-15.90 mg/plate of chloroform extrac; also recorded: active; positive (decrease in mutagenicity when 0.46 or 0.91 mg/plate of methanol extrac
same,mutagenic call,"Test System: CHINESE HAMSTER G10, Strain/Indicator: G10 (GPT)/6-THIOGUANINE, Metabolic Activation: NONE",inactive; negative
same,mutagenic call,"Test System: CHINESE HAMSTER G12, Strain/Indicator: G12 (GPT)/6-THIOGUANINE, Metabolic Activation: NONE",active; positive
same,mutagenic call,"Test System: CHINESE HAMSTER V79 CELLS, Strain/Indicator: V79 CELLS (HPRT)/6-THIOGUANINE, Metabolic Activation: NONE, Method: PREINCUBATION",inactive; negative
same,mutagenic call,"Test System: CHINESE HAMSTER V-79, Strain/Indicator: V-79 (HPRT)/6-THIOGUANINE, Metabolic Activation: NONE",inactive; negative
same,mutagenic call,"Test System: CHINESE HAMSTER V-79, Strain/Indicator: V-79/6-THIOGUANINE, Metabolic Activation: NONE, Method: FLASK ASSAY",inactive; negative
same,mutagenic call,"Test System: CHINESE HAMSTER V-79, Strain/Indicator: V-79/6-THIOGUANINE, Metabolic Activation: NONE, Method: STANDARD PLATE",active; positive
same,mutagenic call,"Test System: CHINESE HAMSTER V-79, Strain/Indicator: V-79/8-AZAGUANINE, Metabolic Activation: NONE",active; positive
same,mutagenic call,"Test System: Chinese hamster ovary cells, Strain/Indicator: EM9 (HPRT)/6-Thioguanine, Metabolic Activation: None",active; positive
same,mutagenic call,"Test System: E. COLI, Strain/Indicator: WP2 (PKM101), Metabolic Activation: NONE, Method: STANDARD PLATE",active; positive
same,mutagenic call,"Test System: E. COLI, Strain/Indicator: WP2, Metabolic Activation: NONE, Method: STANDARD PLATE",inactive; negative
same,mutagenic call,"Test System: E. COLI, Strain/Indicator: WP2, Metabolic Activation: RAT, LIVER, S-9, AROCLOR 1254, Method: STANDARD PLATE",inactive; negative
same,mutagenic call,"Test System: E. COLI, Strain/Indicator: WP2 UVRA (PKM101), Metabolic Activation: NONE, Method: STANDARD PLATE",active; positive
same,mutagenic call,"Test System: HCT116 COLON CANCER CELLS, Strain/Indicator: HCT116 CELLS (HPRT)/6-THIOGUANINE, Metabolic Activation: NONE, Method: PREINCUBATION",active; positive
same,mutagenic call,"Test System: HUMAN T LYMPHOCYTES, Strain/Indicator: PRIMARY CULTURES (HPRT)/6-THIOGUANINE, Metabolic Activation: NONE, Method: PREINCUBATION",active; positive
same,mutagenic call,"Test System: MOUSE LYMPHOMA, Strain/Indicator: L5178Y (TK+/TK-), Metabolic Activation: NONE, Method: SUSPENSION/PLATE",active; positive
same,mutagenic call,"Test System: UDS HUMAN FIBROBLASTS, Strain/Indicator: THY INCORP (NON-S-PHASE), Metabolic Activation: NONE, Method: AUTORADIOGRAPHY",active; positive
same,mutagenic call,"Test System: UDS HUMAN FIBROBLASTS, Strain/Indicator: THY INCORP, Metabolic Activation: NONE, Method: AUTORADIOGRAPHY",active; positive
